Values quoted from earlier work in US11311591B2, “Use of copaifera oleoresin in pathologies of the prostate” (PIERRE FABRE MEDICAMENT, priority 2017, dated 2022).

Tests used:
5αR1 = biological target: T1, 5αR1 (Homo sapiens, UniProt P18405)
T1 sequence (P18405 1-259): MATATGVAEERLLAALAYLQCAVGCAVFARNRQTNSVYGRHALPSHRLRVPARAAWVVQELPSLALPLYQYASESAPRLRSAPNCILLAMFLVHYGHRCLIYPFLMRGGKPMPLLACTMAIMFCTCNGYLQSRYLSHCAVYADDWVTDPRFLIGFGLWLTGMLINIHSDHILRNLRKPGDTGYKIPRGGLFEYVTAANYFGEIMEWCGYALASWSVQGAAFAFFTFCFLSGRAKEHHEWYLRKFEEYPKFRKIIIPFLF

[1] = test system: serum dihydrotestosterone
HSP27 = HSP27 (Homo sapiens, UniProt P04792); conditions: prior art, Phytochemistry Letters 10 (2014)
HSP27, sequence (P04792 whole entry): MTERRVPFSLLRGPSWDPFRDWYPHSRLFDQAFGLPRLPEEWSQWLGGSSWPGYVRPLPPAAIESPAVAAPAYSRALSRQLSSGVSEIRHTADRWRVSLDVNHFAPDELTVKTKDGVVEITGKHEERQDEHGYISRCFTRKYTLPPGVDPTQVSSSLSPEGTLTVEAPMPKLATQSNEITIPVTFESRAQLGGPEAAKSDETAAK

inhibition of HSP27 (in words) (HSP27) | Structure (SMILES) | IC50 (5αR1) [nM] | reduction of mean serum dihydrotestosterone levels [1] [%]
– | CC(C)(C)NC(=O)[C@H]1CC[C@H]2[C@@H]3CC[C@H]4NC(=O)C=C[C@]4(C)[C@H]3CC[C@]12C [Finasteride] | 360 | 70.8
– | C[C@]12C=CC(=O)N[C@@H]1CC[C@@H]1[C@@H]2CC[C@]2(C)[C@@H](C(=O)Nc3cc(C(F)(F)F)ccc3C(F)(F)F)CC[C@@H]12 [dutasteride] | 6 | 94.7
inhibits HSP27 | CC1CCC2(C)C(C(=O)O)=CCCC2C1(C)CCc1ccoc1 (centres unmarked) [hardwickiic acid, Hardwickiic acid] | – | –
